Measured values published in patent US8227453B2, “Pharmaceutical formulations and uses thereof in the treatment of female sexual dysfunction” (Emotional Brain B.V., priority 2004, dated 2012).
Entries after “also recorded” stand apart in the source; their conditions may differ.

Assays:
women suffering from FSD [1] = assay: Vaginal Pulse Amplitude (VPA) response to erotic film in women with FSD, placebo controlled cross-over; format: in vivo, human; conditions: for Vaginal Pulse Amplitude during exposure to erotic stimuli (vaginal arousability) compared with placebo: testosterone 0.5 mg sublingual, Vardenafil 10 mg, four hours after medication; for increase in VPA between neutral and erotic films, before medication (trial 1) versus after medication (trial 4): within drug condition
Description: Fourteen women with a heterosexual orientation (mean age: 40.6 years; sd: 10.4; premenopausal n=8, postmenopausal n=6) who have been experiencing FSD (i.e., low sexual desire, low sexual arousal or decreased orgasm potency) for at least six months prior to study entry, participated in this study. Subjects in fertile age used contraceptives (IUDs, sterilization, oral contraceptives except contraceptives containing anti-androgens). A pregnancy test was part of the procedure. Subjects were interviewed and examined by a gynecologist to exclude pregnancy or breast feeding, vaginal infections, major operations to the vagina and/or vulva or unexplained gynecological complaints. […] Cardiovascular condition was tested and ECG was checked for significant abnormalities. Standard blood chemistry and hematology tests were performed. […] Subjects could not make appointments during their period of menstruation.
Each subject underwent the four different drug treatments (i.e., PDE5 inhibitor, testosterone, PDE5 inhibitor+testosterone and placebo) at four separate experimental days. The four experimental days were separated by at least a three-day period.
During each day of drug manipulation, subjects underwent the following measurements: • −1:00 hours: Emotional Stroop Task • −0:15 hours: Trial 1 • 0:00 hours: Intake drugs • 0:05 hours: Trial 2 • 2:45 hours: Trial 3 • 4:15 hours: Trial 4
Each day started with a physical examination (measurements of vital signs, blood pressure, heart rate, temperature and respiration rate). Blood samples (8 ml) were taken for hormone analyses. Subjects then were seated in the sound attenuated, dimly lit experimental room. In order to make this room less “sterile,” geographic posters were hung on the walls and an air perfumer was placed behind the subjects. The subjects then executed the emotional Stroop task (15 minutes). The experimenter brought the vaginal probe and the subject was left alone in the room to insert the probe. The subject was instructed to sit as quietly as possible while viewing the film fragments. A ten-minute neutral fragment was followed by a five-minute erotic film fragment. After these baseline measurements, the subjects took medication: testosterone (0.5 mg or placebo) sublingually, with cyclodextrins as carrier and Vardenafil (10 mg or placebo) hidden in a capsule. The medication was followed by another set of neutral (five minutes) and erotic (five minutes) film fragments. The subjects removed the vaginal probe and were taken to a waiting room for a pause of two hours. During this pause, they could consume their lunch. Unlimited coffee and tea were available. This pause was followed by a third set of neutral (five minutes) and erotic (five minutes) film fragments.
Again subjects had to wait for two hours so that the last VPA measurement was taken four hours after medication. This last film-trial (neutral, erotic film fragments) was followed by a second presentation of the emotional Stroop. The experimental day ended with a short physical examination including drawing of a blood sample (8 ml for hormone analyses) and collection of AE and SAE.
During the testosterone condition, one subject became nauseated watching the erotic film and decided not to participate further that day. For the psychophysiological evaluation, the VPA (Vaginal Pulse Amplitude) is used. The VPA reflects phasic changes in the blood volume corresponding with each heartbeat; higher levels indicate higher levels of blood flow. The dependent variable used is the amplitude of the pulse wave. Before the mean VPA was calculated, the raw signal (sample rate was 20 Hz) was digitally bandpass filtered with a Butterworth filter (−3 dB cutoff frequency range 0.7-1.5 Hz; 40 dB down/octave). Movement artifacts were detected by visual inspection of the signal and removed manually. Hereafter, the amplitude was measured as the distance between the top and bottom of a pulse wave. […]

[2] = typical value; cited from earlier work
[3] = test system: women suffering from Female Sexual Dysfunction; assay: Sexual desire, genital sensations and subjective sexual arousal in women with FSD; format: in vivo, human
Description: Attentional engagement is an important function for normal human sexuality.

[4] = test system: sexually functional women; conditions: cited from earlier work
[5] = test system: hypogonadotropic hypogonadal females; assay: Vaginal responsiveness during oral testosterone substitution; format: in vivo, human; conditions: dosed each morning
Method: An important aspect of sexual motivation is physiological sexual responding. […] In both studies, subjects received testosterone each morning, but patients in the first experiment were tested in the afternoon and patients in the second experiment in the morning. The different outcomes on physiological responding between these experiments may be caused by a time-dependent effect of testosterone on vaginal arousal.

[6] = test system: healthy sexually functional women; parameters: species or system human; conditions: in vivo
Method: In a recently conducted experiment (not published) in healthy sexually functional women, we used a delayed measurement design in which subjects ingested one dosage of testosterone (0.5 mg sublingual) or placebo and after four hours, underwent fMRI while watching neutral and erotic videos. Hereafter, subjects were conducted to a laboratory where their VPA in response to neutral and erotic videos was measured. […] Because of testosterone's delayed effect on enhancing VPA, we expected enhancement of these “erotic” structures in this fMRI study.

[7] = test system: sexually functional women; assay: Vaginal responsiveness to erotic films after a single sublingual dose in sexually functional women
[8] = test system: healthy sexually functional women; conditions: 0.5 mg sublingual
Method: In a recently conducted experiment (not published) in healthy sexually functional women, we used a delayed measurement design in which subjects ingested one dosage of testosterone (0.5 mg sublingual) or placebo and after four hours, underwent fMRI while watching neutral and erotic videos. Hereafter, subjects were conducted to a laboratory where their VPA in response to neutral and erotic videos was measured.

women suffering from FSD [9] = test system: women suffering from FSD
Description: An unmasked and a masked version of the Emotional Stroop Task comparing color-naming latencies on neutral and erotic words were used. In both the unmasked and the masked condition, eight erotic and neutral words are presented in different colors (i.e., red, green, blue and yellow). An extra set of stimuli consisting of letter strings was used for practice trials. Subjects were instructed to ignore the content of the words and to name the color of the words as quickly as possible (in the masked condition, the color of the mask has to be named). Each trial consisted of a fixation point which is shown for 750 ms, followed by the target stimulus (the colored neutral or erotic word). In the masked condition, the word picture is presented for about 24 ms and then masked by randomly cut, reassembled letters in the same color. A microphone connected to a voice-level detector was placed in front of the subject. Initiation of vocal response was registered by the computer's clock and terminated the target presentation (with a no-response maximum of 3000 ms). Thirty-two neutral words and thirty-two erotic words were presented blocked. The same words were used for each test, however, the sequence of words and colors differed all eight times this task was used.
To test for associations with changes in attentional processes, we used the StroopRT as the measurement point. StroopRT is the difference in mean reaction times on color naming of the neutral and the sexual words.

[10] = Plasma level of testosterone after sublingual administration; conditions: single sublingual dose; of short duration

With CCCc1nc(C)c2c(=O)nc(-c3cc(S(=O)(=O)N4CCN(CC)CC4)ccc3OCC)[nH]n12.Cl [Vardenafil, piperazine, 1-[[3-(1,4-dihydro-5-methyl-4-oxo-7-propylimidazo[5,1-f][1,2,4]triazin-2-yl)-4-ethoxyphenyl]sulfonyl]-4-ethyl-, monohydrochloride] the “Vaginal Pulse Amplitude during exposure to erotic stimuli (vaginal arousability) compared with placebo” value (women suffering from FSD [1]; women with FSD, listed as PDE5 inhibitor, monohydrochloride) was “no effect”, the “Vaginal Pulse Amplitude during exposure to erotic stimuli (vaginal arousability) compared with placebo” value (women suffering from FSD [1]; women with FSD, monohydrochloride) was “did not lead to a significant difference” and the “increase in VPA between neutral and erotic films, before medication (trial 1) versus after medication (trial 4)” value (women suffering from FSD [1]; women with FSD) was “insignificant”. The “time to peak plasma concentration after administration” value [2] was “about one” and the “sexual desire, genital sensations / subjective sexual arousal compared with placebo” value [3] was “no effect”.
In the case of CCCc1nn(C)c2c(=O)[nH]c(-c3cc(S(=O)(=O)N4CCN(C)CC4)ccc3OCC)nc12.O=C(O)CC(O)(CC(=O)O)C(=O)O [sildenafil, 1-[[3-(6,7-dihydro-1-methyl-7-oxo-3-propyl-1Hpyrazolo[4,3-d]pyrimidin-5-yl)-4-ethoxyphenyl]sulfonyl]-4-methylpiperazine citrate], the sexual performance [4] is listed as “improves”.
With CCCCCCCCCCC(=O)O[C@H]1CC[C@H]2[C@@H]3CCC4=CC(=O)CC[C@]4(C)[C@H]3CC[C@]12C [testosterone undecanoate] the “vaginal responsiveness, first group” value ([5]; 40 mg orally per day, eight weeks, tested in the afternoon) was “enhanced” and the “vaginal responsiveness, another group (unpublished data)” value ([5]; tested in the morning) was “not found”.
In the case of C[C@]12CC[C@H]3[C@@H](CCC4=CC(=O)CC[C@@]43C)[C@@H]1CC[C@@H]2O [testosterone, 17-β-hydroxyandrost-4-en-3-one], the “activation of septum and left dorsolateral PFC (fMRI)” value [6] is reported as “very significant increase”, the “vaginal responsiveness when exposed to visual sexual stimuli” value ([7]; eight sexually functional women, single sublingual dose versus placebo) is reported as “striking increase” and the “time lag between plasma testosterone peak and increase in vaginal responsiveness” value ([7]; sexually functional women, sublingual) is reported as “three to four and a half”. For the same compound, the “VPA to erotic stimuli over trials, sexually abused subjects” value (women suffering from FSD [1]; women with FSD sexually abused during childhood, with or without testosterone) was “no increase”, the “VPA response to the erotic film, not-abused subjects, testosterone versus no-testosterone conditions” value (women suffering from FSD [1]; women with FSD, not abused) was “increases” and the “increase in VPA from before to after measurement, drug conditions containing the steroid versus without the steroid” value (women suffering from FSD [1]; women with FSD, interaction F(1.12)=5.75, p<0.04, pooled steroid conditions) was “significantly higher”. The “Vaginal Pulse Amplitude during exposure to erotic stimuli (vaginal arousability) compared with placebo” value (women suffering from FSD [1]; women with FSD) was “no effect; also recorded: insufficient for a significant increase”, the “increase in VPA between neutral and erotic films, before medication (trial 1) versus after medication (trial 4)” value (women suffering from FSD [1]; women with FSD) was “insignificant” and the “relative change in VPA as compared with the placebo, after fMRI procedure” value [8] was “smaller”. The “sexual desire, genital sensations / subjective sexual arousal compared with placebo” value [3] was “no effect”, the “StroopRT (attention for sexual stimuli), not-abused subjects” value (women suffering from FSD [9]; masked condition, decrease = attention for sexual stimuli increases) was “decreases” and the “StroopRT (attentional bias for sexual stimuli), sexually abused subjects” value (women suffering from FSD [9]; masked condition, increase = bias away from sexual stimuli) was “increases”. The “attentional engagement (or withdrawal) for sexual cues, as compared with placebo and/or a PDE5 inhibitor” value (women suffering from FSD [9]; women with FSD) was “increase” and the “plasma levels of testosterone after intake” value [10] was “sharp increase”.
